Data taken from ChEMBL document CHEMBL1201862, “PubChem BioAssay data set” (2004).
Structures can show the parent of a compound that is named as a salt. One block for each molecule: values may come before it. The source made the active and inactive calls.

Columns and labels:
Melanocortin receptor 4 = Melanocortin receptor 4 (Homo sapiens, UniProt P32245); type: functional, cell-based;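 also: Cell-based assay with luminescence read-out, confirmatory dose-response testing for agonist activity of biased ligands at MC4R; human U2OS cells with tagged receptor and beta-arrestin; potency of agonists that increase receptor coupling to beta-arrestin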
[1] = target: Cell division cycle 7-related protein kinase (Homo sapiens, UniProt O00311); type: functional;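 also: value obtained from a kinome-wide kinase panel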
[2] = target: Serine/threonine-protein kinase pim-1 (Homo sapiens, UniProt P11309); type: functional
[3] = target: Interleukin-1 receptor-associated kinase 4 (Homo sapiens, UniProt Q9NWZ3); type: functional
[4] = target: Glycogen synthase kinase-3 beta (Homo sapiens, UniProt P49841); type: functional;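 also: value comes from a broad kinome profiling panel, with GSK3B as the panel member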
[5] = target: Dual specificity protein kinase CLK4 (Homo sapiens, UniProt Q9HAZ1); type: functional
[6] = target: Mitogen-activated protein kinase kinase kinase kinase 4 (Homo sapiens, UniProt O95819); type: functional
[7] = target: Homeodomain-interacting protein kinase 2 (Homo sapiens, UniProt Q9H2X6); type: functional;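 also: measured within a kinome-wide kinase profiling panel, HIPK2 being one panel member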
[8] = target: cAMP-dependent protein kinase catalytic subunit alpha (Homo sapiens, UniProt P17612); type: functional
[9] = target: 72 kDa type IV collagenase (Homo sapiens, UniProt P08253); assay: Dose Response validation of uHTS RPN11 inhibitor hits using a MMP-2 Fluorescence assay.; type: functional
[10] = target: 26S proteasome non-ATPase regulatory subunit 14 (Homo sapiens, UniProt O00487); assay: inhibition of proteasome subunit RPN11 – biochemical, fluorescence polarization, uHTS hits, confirmation (AID 602368); type: functional
Prothrombin = Prothrombin (Bos taurus, UniProt P00735); assay: thrombin inhibition, dose response, biochemical, fluorescence polarization, uHTS hits (AID 602369); type: functional
[11] = target: Ras and Rab interactor 1/Tyrosine-protein kinase ABL1 (Homo sapiens, UniProt P00519+Q13671); type: functional;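 also: biochemical TR-FRET dose-response test measuring inhibition of binding between Rin1 and Abl proteins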
Beta-galactosidase = Beta-galactosidase (Escherichia coli, UniProt Q8VNN2); assay: beta-galactosidase enzyme inhibitors and activators, dose response, artefact control for CCR6 antagonist project, biochemical, E. coli enzyme, set 3 (AID 504712); type: functional
[12] = inhibitors of intracellular T. cruzi replication, confirmation, NIH3T3 host cells, beta-gal luminescence (AID 2044); type: functional, cell-based;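 also: intracellular parasites grown in NIH/3T3 mouse fibroblasts as host cells; luminescent beta-galactosidase reporter signal from transgenic T. cruzi replicating inside host cells; inhibitors lower the luminescence signal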
[13] = target: ATP-dependent molecular chaperone HSP82 (Candida albicans (strain WO-1) (Yeast), UniProt C4YTQ8); assay: loss of DOC-induced GRE-beta-galactosidase reporter signal, dose response, Hsp90 inhibitor project, S. cerevisiae, luminescence (AID 2400); type: functional, cell-based;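 also: beta-galactosidase luminescence from glucocorticoid response element reporter as proxy for Hsp90 function; inhibitor potency where signal loss means Hsp90 inhibition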
[14] = NIH-3T3 fibroblast cytotoxicity, dose response, cytotoxicity control for antifungal single agent project, cell-based, Alamar Blue, dry powder (AID 602188); type: functional
[15] = C. albicans growth with fluconazole, confirmation, fluorescence, retest (AID 2467); type: functional, cell-based
[16] = NIH-3T3 fibroblast cytotoxicity, dose response, cytotoxicity control, cell-based, fluorescence, Alamar Blue, secondary assay (AID 2327); type: functional;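 also: NIH-3T3 mouse fibroblasts cultured with fluconazole at 8 µg/mL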
[17] = target: T1, Serine/threonine-protein phosphatase (Candida dubliniensis (strain CD36 / CBS 7987 / NCPF 3949 / NRRLY-17841) (Yeast), UniProt B9W6M3); assay: calcineurin pathway inhibitors in yeast reporter, dose response, S. cerevisiae, CDRE-lacZ, luminescence, secondary (AID 2388); type: functional, cell-based;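 also: yeast reporter cells carrying a calcineurin-responsive lacZ construct stimulated with calcium chloride; luminescent beta-galactosidase reporter signal in whole cells rather than isolated phosphatase activity; potency for inhibition where a drop in reporter signal means calcineurin blockade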
T1 sequence (B9W6M3 whole entry): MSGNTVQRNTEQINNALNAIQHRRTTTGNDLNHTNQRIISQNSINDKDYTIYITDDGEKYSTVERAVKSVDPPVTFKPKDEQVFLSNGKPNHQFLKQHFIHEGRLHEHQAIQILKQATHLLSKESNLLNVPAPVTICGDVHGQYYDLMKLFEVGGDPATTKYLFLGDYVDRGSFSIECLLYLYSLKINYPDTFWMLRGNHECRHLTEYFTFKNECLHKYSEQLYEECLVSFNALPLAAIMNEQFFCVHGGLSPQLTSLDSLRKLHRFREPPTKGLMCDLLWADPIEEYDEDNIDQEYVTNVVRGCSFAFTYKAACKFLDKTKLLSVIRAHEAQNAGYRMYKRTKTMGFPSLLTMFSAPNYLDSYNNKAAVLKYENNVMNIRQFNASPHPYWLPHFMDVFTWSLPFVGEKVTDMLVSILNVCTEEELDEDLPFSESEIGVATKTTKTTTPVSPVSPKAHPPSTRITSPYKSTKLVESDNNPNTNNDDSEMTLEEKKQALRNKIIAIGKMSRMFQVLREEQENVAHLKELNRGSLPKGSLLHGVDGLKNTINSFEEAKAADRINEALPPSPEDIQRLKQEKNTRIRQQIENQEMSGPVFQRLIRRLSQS

[18] = cytotoxicity toward NIH3T3 fibroblasts, dose response, counter-screen, cell-based, ATP luminescence, mouse fibroblasts (AID 2010); type: functional;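 also: cells exposed to compound for about 90 hours before reading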
[19] = target: Heat shock protein HSP 90-alpha (Homo sapiens, UniProt P07900); type: functional, organism-based
Interleukin-8 [20] = target: T2, Interleukin-8 (Homo sapiens, UniProt P10145); assay: Dose Response confirmation of uHTS small molecule hits for cystic fibrosis induced NFkb Inhibitors in a TNFa-induced IL8 counterscreen.; type: functional; conditions: read-out: IC50_Mean
Kallikrein-7 = Kallikrein-7 (Homo sapiens, UniProt P49862); assay: Fluorescence Intensity-based biochemical primary high throughput dose response assay to identify activators of kallikrein-7 (K7) zymogen.
Interleukin-8 [21] = target: T2, Interleukin-8; assay: Dose Response confirmation of uHTS small molecule hits for cystic fibrosis induced NFkb Inhibitors in a PAF-induced IL8 counterscreen.; type: functional; conditions: read-out: IC50_Mean
[22] = target: T3, DNA repair and recombination protein RAD54-like (Homo sapiens, UniProt Q92698); assay: inhibitors of human RAD54 branch migration, confirmation, biochemical, fluorescence, cherry-picked samples, dose series (AID 651657); type: functional
T3 sequence (Q92698 whole entry): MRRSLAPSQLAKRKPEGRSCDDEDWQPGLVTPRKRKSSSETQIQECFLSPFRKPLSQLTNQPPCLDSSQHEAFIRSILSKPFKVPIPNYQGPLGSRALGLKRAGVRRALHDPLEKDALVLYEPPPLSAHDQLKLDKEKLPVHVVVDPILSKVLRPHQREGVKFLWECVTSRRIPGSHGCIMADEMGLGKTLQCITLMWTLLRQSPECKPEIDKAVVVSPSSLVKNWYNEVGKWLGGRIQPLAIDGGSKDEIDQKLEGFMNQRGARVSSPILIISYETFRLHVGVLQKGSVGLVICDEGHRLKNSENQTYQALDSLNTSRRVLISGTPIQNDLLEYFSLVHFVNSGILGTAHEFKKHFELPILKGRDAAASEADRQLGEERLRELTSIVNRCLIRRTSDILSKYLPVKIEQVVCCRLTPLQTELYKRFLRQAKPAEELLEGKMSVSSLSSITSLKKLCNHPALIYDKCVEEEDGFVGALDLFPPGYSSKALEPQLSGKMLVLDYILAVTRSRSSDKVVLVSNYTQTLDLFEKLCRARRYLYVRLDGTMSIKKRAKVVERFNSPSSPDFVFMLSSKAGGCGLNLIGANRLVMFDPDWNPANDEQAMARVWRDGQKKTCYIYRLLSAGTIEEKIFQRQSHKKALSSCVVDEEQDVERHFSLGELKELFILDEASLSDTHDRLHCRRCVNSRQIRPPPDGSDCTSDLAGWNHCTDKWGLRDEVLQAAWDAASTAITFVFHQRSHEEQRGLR

[23] = target: T4, Aryl hydrocarbon receptor (Homo sapiens, UniProt P35869); conditions: Potency;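 also: confirmatory quantitative high-throughput screen measuring activation of the AhR signaling pathway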
T4 sequence (P35869 whole entry): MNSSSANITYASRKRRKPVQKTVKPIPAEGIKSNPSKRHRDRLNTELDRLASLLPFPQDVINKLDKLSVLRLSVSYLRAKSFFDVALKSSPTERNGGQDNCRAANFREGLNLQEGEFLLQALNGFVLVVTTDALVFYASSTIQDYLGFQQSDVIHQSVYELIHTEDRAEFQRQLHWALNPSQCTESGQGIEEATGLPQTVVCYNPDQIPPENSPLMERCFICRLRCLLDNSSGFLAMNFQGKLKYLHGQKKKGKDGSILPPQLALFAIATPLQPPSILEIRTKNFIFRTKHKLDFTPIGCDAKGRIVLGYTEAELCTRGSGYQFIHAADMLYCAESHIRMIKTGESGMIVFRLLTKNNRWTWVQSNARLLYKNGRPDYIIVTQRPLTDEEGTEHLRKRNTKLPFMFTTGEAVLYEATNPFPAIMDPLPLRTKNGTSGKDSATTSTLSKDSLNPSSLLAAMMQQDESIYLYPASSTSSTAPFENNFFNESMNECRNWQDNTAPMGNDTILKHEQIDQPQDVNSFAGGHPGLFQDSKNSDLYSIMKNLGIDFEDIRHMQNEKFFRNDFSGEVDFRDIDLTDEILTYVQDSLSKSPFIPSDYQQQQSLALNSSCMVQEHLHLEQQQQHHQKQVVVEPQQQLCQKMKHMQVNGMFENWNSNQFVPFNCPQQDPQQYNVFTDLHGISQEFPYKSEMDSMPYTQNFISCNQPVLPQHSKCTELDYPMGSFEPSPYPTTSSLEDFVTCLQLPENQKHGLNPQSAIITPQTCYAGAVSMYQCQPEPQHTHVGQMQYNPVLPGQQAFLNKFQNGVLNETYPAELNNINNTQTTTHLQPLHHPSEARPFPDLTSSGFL

[24] = target: T5, Apoptotic protease-activating factor 1 (Homo sapiens, UniProt O14727); assay: SAR analysis of small molecule Activators of Apaf-1 in a Fluorescent assay.; type: functional; conditions: read-out: EC50_Mean;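 also: caspase-3 cleavage of fluorogenic Rh110 DEVD substrate downstream of apoptosome activation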
T5 sequence (O14727 whole entry): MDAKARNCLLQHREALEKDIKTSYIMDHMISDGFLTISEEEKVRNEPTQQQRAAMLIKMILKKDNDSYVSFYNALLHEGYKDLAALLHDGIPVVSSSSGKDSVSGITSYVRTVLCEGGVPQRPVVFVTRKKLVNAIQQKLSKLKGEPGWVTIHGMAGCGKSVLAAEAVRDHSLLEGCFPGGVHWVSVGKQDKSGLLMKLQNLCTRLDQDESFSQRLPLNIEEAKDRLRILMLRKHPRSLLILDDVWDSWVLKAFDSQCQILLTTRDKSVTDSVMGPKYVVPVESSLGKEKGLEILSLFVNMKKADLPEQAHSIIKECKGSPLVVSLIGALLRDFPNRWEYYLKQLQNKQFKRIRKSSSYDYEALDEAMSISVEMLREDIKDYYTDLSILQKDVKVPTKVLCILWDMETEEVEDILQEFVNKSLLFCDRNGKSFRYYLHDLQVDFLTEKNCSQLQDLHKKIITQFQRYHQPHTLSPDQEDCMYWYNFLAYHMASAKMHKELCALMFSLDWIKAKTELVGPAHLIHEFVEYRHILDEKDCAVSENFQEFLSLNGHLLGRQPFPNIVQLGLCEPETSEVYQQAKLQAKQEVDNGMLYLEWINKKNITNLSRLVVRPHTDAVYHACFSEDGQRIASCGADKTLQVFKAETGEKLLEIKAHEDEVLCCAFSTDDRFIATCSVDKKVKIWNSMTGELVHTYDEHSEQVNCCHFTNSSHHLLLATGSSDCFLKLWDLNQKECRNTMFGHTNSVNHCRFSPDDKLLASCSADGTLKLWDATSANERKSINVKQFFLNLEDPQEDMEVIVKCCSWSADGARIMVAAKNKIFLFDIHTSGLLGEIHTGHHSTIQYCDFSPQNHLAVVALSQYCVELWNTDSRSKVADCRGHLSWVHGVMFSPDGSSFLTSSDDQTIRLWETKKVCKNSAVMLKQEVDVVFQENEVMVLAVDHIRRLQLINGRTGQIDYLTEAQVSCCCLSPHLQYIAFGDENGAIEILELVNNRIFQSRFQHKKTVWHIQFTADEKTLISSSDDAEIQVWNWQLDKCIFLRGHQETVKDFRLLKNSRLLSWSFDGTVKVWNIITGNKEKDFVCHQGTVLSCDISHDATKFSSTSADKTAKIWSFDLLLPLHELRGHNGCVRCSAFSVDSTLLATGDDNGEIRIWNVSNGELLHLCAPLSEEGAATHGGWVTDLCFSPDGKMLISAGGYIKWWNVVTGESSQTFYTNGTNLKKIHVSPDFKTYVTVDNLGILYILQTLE

[25] = target: DNA dC->dU-editing enzyme APOBEC-3A (Homo sapiens, UniProt P31941); assay: SAR analysis of small molecule inhibitors of APOBEC3A DNA Deaminase via a fluorescence-based single-stranded DNA deaminase assay.; type: functional; conditions: read-out: IC50_Mean
[26] = target: DNA dC->dU-editing enzyme APOBEC-3G (Homo sapiens, UniProt Q9HC16); assay: APOBEC3G deaminase inhibitors, SAR follow-up, biochemical, fluorescence, single-stranded DNA substrate (AID 602136); type: functional; conditions: read-out: IC50_Mean
Chain of DNA dC->dU-editing enzyme APOBEC-3G (Q9HC16 whole entry): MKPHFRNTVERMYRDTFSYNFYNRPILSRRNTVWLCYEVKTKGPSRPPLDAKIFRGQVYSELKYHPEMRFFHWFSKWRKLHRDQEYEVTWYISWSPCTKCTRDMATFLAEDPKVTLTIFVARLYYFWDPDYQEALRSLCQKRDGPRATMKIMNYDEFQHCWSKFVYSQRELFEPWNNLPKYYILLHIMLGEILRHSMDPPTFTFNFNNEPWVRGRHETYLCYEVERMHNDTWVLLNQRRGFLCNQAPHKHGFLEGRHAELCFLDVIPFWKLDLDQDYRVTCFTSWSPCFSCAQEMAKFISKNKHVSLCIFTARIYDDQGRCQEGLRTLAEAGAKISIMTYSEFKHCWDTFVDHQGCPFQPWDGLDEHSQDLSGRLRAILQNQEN

T2 sequence (P10145 whole entry): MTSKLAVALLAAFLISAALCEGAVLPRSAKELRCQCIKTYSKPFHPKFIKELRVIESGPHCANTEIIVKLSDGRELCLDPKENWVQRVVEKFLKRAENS
Chain of Interleukin-1 receptor-associated kinase 4 (Q9NWZ3 whole entry): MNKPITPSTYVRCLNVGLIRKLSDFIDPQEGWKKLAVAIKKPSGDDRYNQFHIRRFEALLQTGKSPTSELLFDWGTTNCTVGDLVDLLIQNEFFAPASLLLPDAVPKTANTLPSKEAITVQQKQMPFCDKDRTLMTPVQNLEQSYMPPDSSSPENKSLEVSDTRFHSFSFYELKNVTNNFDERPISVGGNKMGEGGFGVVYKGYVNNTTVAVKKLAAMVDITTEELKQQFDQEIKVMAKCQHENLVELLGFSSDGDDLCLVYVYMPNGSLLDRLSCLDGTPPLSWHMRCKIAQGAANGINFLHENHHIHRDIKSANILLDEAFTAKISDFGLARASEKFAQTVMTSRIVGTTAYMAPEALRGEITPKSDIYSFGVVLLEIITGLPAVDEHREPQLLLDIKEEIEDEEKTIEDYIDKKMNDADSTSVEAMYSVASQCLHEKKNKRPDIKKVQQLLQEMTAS
Chain of Glycogen synthase kinase-3 beta (P49841 whole entry): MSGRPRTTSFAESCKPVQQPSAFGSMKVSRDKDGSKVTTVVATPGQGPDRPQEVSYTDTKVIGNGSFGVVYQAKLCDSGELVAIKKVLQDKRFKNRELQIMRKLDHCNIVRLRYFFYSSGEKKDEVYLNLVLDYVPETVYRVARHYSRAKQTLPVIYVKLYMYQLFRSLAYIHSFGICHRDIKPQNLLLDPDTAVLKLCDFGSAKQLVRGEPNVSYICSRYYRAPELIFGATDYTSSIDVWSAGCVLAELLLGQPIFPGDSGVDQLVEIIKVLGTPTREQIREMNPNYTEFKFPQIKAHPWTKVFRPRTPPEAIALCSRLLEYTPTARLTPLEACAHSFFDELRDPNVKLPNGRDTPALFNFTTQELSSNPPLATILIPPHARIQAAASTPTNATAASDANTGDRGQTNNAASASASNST
Chain of Cell division cycle 7-related protein kinase (O00311 whole entry): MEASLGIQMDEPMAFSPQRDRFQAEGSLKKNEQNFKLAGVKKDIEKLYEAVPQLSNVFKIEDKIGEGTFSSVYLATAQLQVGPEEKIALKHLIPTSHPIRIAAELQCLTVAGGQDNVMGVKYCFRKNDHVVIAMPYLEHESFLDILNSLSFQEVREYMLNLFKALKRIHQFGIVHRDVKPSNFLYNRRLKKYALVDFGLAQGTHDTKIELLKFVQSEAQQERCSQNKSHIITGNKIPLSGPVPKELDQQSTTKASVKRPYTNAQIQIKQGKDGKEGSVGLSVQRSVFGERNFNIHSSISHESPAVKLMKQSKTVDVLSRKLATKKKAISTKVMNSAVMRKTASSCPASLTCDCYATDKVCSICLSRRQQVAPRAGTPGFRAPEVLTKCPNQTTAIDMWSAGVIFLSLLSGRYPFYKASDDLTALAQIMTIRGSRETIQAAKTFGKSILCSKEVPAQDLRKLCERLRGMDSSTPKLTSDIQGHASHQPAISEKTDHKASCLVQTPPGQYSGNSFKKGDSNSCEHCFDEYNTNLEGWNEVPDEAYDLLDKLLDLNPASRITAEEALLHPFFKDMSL
Chain of Dual specificity protein kinase CLK4 (Q9HAZ1 whole entry): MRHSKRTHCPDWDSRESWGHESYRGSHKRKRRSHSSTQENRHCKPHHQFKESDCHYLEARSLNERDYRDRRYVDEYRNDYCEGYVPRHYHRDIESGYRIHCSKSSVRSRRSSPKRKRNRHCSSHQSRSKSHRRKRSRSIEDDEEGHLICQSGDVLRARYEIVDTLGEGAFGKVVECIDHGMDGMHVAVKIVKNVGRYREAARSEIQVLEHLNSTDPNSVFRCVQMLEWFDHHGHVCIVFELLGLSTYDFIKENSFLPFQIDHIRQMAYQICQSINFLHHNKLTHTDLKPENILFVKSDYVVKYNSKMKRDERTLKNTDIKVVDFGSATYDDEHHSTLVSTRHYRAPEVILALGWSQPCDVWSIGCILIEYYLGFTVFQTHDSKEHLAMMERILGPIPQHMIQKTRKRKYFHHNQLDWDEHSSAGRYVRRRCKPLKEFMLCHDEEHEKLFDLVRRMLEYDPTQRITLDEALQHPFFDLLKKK
Chain of DNA dC->dU-editing enzyme APOBEC-3A (P31941 whole entry): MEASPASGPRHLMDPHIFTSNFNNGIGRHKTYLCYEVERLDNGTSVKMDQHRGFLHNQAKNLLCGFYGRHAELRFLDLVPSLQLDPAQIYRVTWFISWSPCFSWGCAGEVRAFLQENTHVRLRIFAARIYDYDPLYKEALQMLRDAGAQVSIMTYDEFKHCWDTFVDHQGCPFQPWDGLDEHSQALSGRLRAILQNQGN
Chain of Ras and Rab interactor 1/Tyrosine-protein kinase ABL1 (P00519 whole entry): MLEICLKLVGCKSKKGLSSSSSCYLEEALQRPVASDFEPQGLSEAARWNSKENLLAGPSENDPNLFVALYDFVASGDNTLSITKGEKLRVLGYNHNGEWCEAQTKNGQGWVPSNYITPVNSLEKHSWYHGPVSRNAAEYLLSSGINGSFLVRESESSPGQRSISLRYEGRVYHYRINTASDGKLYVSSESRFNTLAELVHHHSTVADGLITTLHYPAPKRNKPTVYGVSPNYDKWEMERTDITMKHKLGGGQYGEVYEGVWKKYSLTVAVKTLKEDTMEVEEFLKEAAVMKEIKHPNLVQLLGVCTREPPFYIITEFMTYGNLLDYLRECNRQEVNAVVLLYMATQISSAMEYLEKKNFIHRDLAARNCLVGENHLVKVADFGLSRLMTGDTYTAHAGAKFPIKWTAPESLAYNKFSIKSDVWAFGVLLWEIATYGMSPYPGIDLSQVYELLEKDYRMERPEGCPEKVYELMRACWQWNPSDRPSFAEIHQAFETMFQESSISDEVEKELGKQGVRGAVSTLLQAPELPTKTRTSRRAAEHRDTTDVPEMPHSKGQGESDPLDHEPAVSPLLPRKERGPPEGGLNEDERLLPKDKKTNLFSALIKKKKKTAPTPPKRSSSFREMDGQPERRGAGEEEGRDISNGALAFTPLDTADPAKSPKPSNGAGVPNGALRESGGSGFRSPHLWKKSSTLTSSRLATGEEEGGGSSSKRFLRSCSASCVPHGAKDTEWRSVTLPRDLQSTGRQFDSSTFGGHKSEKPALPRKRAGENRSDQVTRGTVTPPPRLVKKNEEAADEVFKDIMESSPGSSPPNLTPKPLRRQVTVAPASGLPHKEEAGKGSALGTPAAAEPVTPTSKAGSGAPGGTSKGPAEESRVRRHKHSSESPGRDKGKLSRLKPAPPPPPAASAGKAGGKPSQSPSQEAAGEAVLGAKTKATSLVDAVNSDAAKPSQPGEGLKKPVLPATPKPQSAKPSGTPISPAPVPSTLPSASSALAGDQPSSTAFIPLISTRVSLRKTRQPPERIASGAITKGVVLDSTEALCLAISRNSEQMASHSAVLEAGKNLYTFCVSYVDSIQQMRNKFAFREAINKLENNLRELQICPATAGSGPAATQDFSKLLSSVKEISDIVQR
Chain of Ras and Rab interactor 1/Tyrosine-protein kinase ABL1 (Q13671 whole entry): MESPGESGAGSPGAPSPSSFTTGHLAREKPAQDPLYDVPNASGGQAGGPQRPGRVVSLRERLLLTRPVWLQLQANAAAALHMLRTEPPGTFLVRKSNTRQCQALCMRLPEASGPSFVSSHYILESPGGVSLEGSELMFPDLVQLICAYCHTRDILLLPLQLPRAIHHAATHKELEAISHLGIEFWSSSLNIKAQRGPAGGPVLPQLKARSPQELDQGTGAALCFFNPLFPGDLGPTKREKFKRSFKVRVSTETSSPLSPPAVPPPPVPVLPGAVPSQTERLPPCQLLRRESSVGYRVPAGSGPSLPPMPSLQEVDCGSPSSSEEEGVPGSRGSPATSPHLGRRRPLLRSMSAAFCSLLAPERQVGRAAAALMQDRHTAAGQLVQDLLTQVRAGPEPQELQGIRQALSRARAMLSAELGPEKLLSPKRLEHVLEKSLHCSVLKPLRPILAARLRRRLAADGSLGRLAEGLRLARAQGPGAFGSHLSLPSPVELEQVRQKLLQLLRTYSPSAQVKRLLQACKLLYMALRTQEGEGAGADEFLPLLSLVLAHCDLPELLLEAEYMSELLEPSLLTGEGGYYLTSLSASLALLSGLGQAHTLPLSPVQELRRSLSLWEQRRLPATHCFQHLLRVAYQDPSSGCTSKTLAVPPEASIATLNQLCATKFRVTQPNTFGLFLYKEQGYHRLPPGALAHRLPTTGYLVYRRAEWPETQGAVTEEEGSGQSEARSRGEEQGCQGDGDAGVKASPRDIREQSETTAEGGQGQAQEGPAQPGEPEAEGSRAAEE
Chain of Serine/threonine-protein kinase pim-1 (P11309 whole entry): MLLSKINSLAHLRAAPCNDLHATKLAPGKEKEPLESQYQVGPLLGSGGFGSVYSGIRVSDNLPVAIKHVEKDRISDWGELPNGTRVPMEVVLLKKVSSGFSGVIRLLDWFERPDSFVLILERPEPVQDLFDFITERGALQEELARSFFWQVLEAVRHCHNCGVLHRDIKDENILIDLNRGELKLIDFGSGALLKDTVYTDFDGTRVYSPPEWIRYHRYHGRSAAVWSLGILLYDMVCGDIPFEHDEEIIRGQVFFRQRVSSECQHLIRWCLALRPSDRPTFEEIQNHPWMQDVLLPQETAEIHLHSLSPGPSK

Ki [1]: 0.002 µM (active)
Ki [2]: 0.794 µM (active)
Ki [3]: 0.794 µM (active)
Ki [4]: 0.251 µM (active)
Ki [5]: 0.00631 µM (active)
Ki [6]: 0.01 µM (active)
Ki [7]: 0.0631 µM (active)
Ki [8]: 0.251 µM (active)
SMILES: COCC(C)Nc1cc(-c2c[nH]c3ncccc23)cc(Cl)n1 (stereo not given)

IC50 [11]: 5.54 µM (active)
SMILES: COC(=O)Nc1csc2c1NC(=O)CCCC2

EC50 [24]: > 100 µM (inactive)
SMILES: CC(C)C(=O)Nc1ccc(N)cc1

More lines, now with the values behind:

SMILES: N#C/C(=C\c1cn(CCOc2ccccc2F)c2ccccc12)C(=O)NCc1cccs1
EC50 (Melanocortin receptor 4): > 89.2 µM (inactive)

SMILES: COc1ccc(Cc2c(C(C)(C)C)nc3ccc(Cl)cn23)c(C)c1
IC50 [9]: > 100 µM (inactive)
IC50 [10]: 22.5 µM (active)
IC50 (Prothrombin): 17.7 µM (active)

SMILES: O=C(Oc1c(Cl)cc(Cl)c2cccnc12)c1ccco1
IC50 (Beta-galactosidase): > 66.6 µM (inactive)
EC50 [12]: 2.12 µM (active)
EC50 [13]: 15.3 µM (active)
AC50 [14]: 2.63 µM (active)
EC50 [15]: 0.098 µM (active)
EC50 [16]: 56.7 µM (inconclusive)
EC50 [17]: > 180 µM (inactive)
EC50 [18]: 10.1 µM (active)
AC50 [19]: < 0.195 µM (active)

SMILES: COc1ccc2c(c1)[nH]c1c(C)nccc12 [HARMINE HYDROCHLORIDE]
IC50 (Interleukin-8 [20]): > 79 µM (inactive)
EC50 (Kallikrein-7): 24.8 µM (inactive)
IC50 (Interleukin-8 [21]): 6.96 µM (active)
AC50 [22]: 14.4 µM (active)

SMILES: O=C(Oc1ccccc1)c1cccc(C(=O)Oc2ccccc2)c1
AC50 [23]: 7.94 µM (inconclusive)

SMILES: Cc1nc2sc3c(c2c2nncn12)CCCC3
IC50 [25]: > 99 µM (inactive)
IC50 [26]: > 99 µM (inactive)
